Reference: patent US20060018857A1, “Conditioning surface-active preparation” (priority 2004, published 2006)

Assays:
[1] = Sensory assessment of skin feel on the treated forearm; type: in vivo, human; details: FIG. 1; versus standard co-surfactant Cocamidopropylbetaine; inside of forearm
Description: The conditioning properties of two surfactant mixtures were compared with one another by sensory assessment. After the sample composition had been completely absorbed onto the skin, the upper side of the middle and index fingers was slowly drawn without pressing over the treated inside of the forearm. If the skin surface was felt to be without friction, this corresponded to a soft skin feel.
In FIG. 1, marks in the left column favor the standard co-surfactant and marks in the right column favor the inventive co-surfactant for that property. In FIG. 1, square marks indicate a high degree of significance; diamonds indicate a medium degree of significance and circles indicate a low degree of significance (as indicated also by the length of the horizontal lines through the marks).

[2] = Adsorption of sodium lauryl ether sulfate onto skin; set-up: species or system human; details: FIG. 4; versus standard co-surfactant cocoglutamate
[3] = Half head test, shampoo versus standard; type: in vivo, human
Method: Each test was conducted on 10 volunteers by trained and skilled people. Each half of the head was prewashed and then treated with the corresponding products. During the test, performance properties, such as skin feel, were evaluated first, followed by such parameters as combability, feel, luster and volume.

[4] = FIG. 2, versus standard co-surfactant Cocamidopropylbetaine, no added polymer
[5] = FIG. 3, versus standard co-surfactant Cocamidopropylbetaine and a polymer

Laureth-7 Citrate
Skin feel (softness), sensory assessment [1]: felt to be softer | Prevention of adsorption of sodium lauryl ether sulfate onto skin [2]: prevented considerably more effectively | Combability of hair in the dry and wet state [3, 4]: can be combed far better both in the dry and in the wet state | Feel properties of hair [3, 4]: distinctly better | Conditioning properties ([3]; FIG. 2, versus standard co-surfactant Cocamidopropylbetaine, no added polymer, 10 volunteers): clearly superior conditioning properties | Combability of dry hair [3, 5]: improved combability of dry hair | Feel of the hair [3, 5]: more pleasant feel of the hair
